Data on four substances can be found in US20060127411A1 (priority 2002, published 2006).

The test system of assay [1] is IgE antibodies from the serum of patients with atopic eczema. In kind it is binding, human.
Assay [2] relates to peripheral blood lymphocytes (PBMC). In kind it is cell-based, human.
Assay [3] shares this test system. The assay is classed as cell-based, human. The source holds these as a separate data set.
Assay [4] relates to IgE antibodies from the serum of patients with atopic eczema. The assay is classed as binding, human. This is another data set of the same source.

QEEDFLTLH [Peptide P2]: the “IgE binding in the dot blot” value in assay [1] is listed as “weak but clearly detectable IgE binding”. In addition, in assay [2], the “Effect on proliferation of lymphocytes” value was “did not bring to light any significant effects”. For the same substance, in assay [3], the “Intracellular IFNγ production” value is given as “P1 suppresses the production of IFNγ, a cytokine which mediates a number of immunological functions, more strongly than P2”; the “Intracellular IL-4 production” value is listed as “is stimulated as a function of the dosage”; the “Ratio between IFNγ and IL-4 (IFNγ+ Th1 cells to IL-4+ Th2 cells)” value is on record as “modified by the peptides as a function of the dosage in favour of the IL-4 producing Th2 lymphocytes”.
Consider QELDYLTRH [Peptide P1], for which the “IgE binding in the dot blot” value in assay [1] is “weak but clearly detectable IgE binding”.
Regarding “S. aureus enterotoxin B [SEB, reference compound]”, the “IgE binding in the immunoblot” value in assay [4] is listed as “possible to detect specific IgE antibodies against SEB”.
The same measure, in the same setting: with “V Q T N K K K V T A Q E L D Y L T R H (VQTNKKKVTAQELDYLTRH) [Peptide (c)]” the entry was “the only one to exhibit an IgE binding”.
